# Data: patent US8916567B2, “Certain crystalline hydrates, pharmaceutical compositions thereof and methods for preparation and use thereof” (Universal Technology Alliance, Inc., priority 2009, dated 2014)
# Experiments:
# [1] = tested on: Staphylococcus aureus MSSA; assay: Minimum inhibitory concentration (MIC) in vitro, agar dilution method; format: cell-based; conditions: S. MSSA (11 strains), clinically isolated
# Excerpt: (§1) Hydrates Samples: • The 1/2 hydrates prepared according to Example 2; • Content (purity % wt): 99.0%; • The 1/12 hydrates prepared according to Example 253; • Content (purity % wt): 98.9%; • The 2/7 hydrates prepared according to Example 106; • Content (purity % wt): 98.8%; • The 2/5 hydrates prepared according to Example 162; • Content (purity % wt): 99.0%; • The 3/4 hydrates prepared according to Example 337; • Content (purity % wt): 98.8%; • Preparation: dissolved in DMSO, and further diluted with sterile distilled water to desired concentration. • The hydrates samples were supplied by Sichuan Beilike Biotechnology LTD.
# (§2) Anhydrous Sample: • The anhydrous compounds prepared according to Example 1. • Content (purity % wt): 98.6%; • Preparation: dissolved in DMSO, and further diluted with sterile distilled water to desired concentration; • The anhydrous sample was supplied by Sichuan Beilike Biotechnology LTD.
# (§3) Control Samples • Vancomycin: provided by Sichuan Beilike Biotechnology LTD, purchased from Eli Lilly Japan K.K. • Lot No.: WM16151 (production date: Apr. 10, 2007, expiration date: Apr. 9, 2009). • Specification: 500 mg/bottle; solubility (physicochemical properties): soluble in water. • Linezolid (LZ): provided by Sichuan Beilike Biotechnology LTD.
# (§4) Bacteria Strains • Clinically isolated strains: clinically isolated bacterial pathogens collected in Sichuan and Beijing areas from March 2007 to May 2008. • Species include: Staphylococcus aureus MRSA, Staphylococcus aureus MSSA, S. epidermidis MRSE, S. epidermidis MSSE, E. feacalis, and E. feacium, a total of 51 strains. • Quality control strains: Staphylococcus aureus […] strain kept in Sichuan Industrial Institute of Antibiotics, purchased from the medical testing center of the Ministry of Health, China.
# (§5) Experimental Method: • Measurement of the minimum inhibitory concentration (MIC) in vitro: • The minimum inhibitory concentration (MIC) of each test sample against test strains was measured by using the agar dilution method recommended by the U.S. National Committee for Clinical Laboratory Standards (CLSI/NCCIs).
# (§6) Based on the CLSI/NCCL's testing standard with respect to vancomycin and linezolid (see Table 6), the minimum inhibitory concentration (MIC) values of every strain were reported, and the MIC50 (the concentration that inhibits 50% of the different strains of bacteria), MIC90 (the concentration that inhibits 90% of the different strains of bacteria), and MICrange (the range of the MIC value of the tested strains) were observed.
# S. epidermidis MRSE = assay: as above; format: cell-based
# Excerpt: as §1, §2, §3, §4, §5, §6
# [2] = tested on: Staphylococcus aureus MRSA; assay: as above; format: cell-based; conditions: S. MRSA (10 strains), clinically isolated
# Excerpt: as §1, §2, §3, §4, §5, §6
# E. feacalis = assay: as above; format: cell-based
# Excerpt: as §1, §2, §3, §4, §5, §6
# E. feacium = assay: as above; format: cell-based
# Excerpt: as §1, §2, §3, §4, §5, §6
# S. epidermidis MSSE = assay: as above; format: cell-based
# Excerpt: as §1, §2, §3, §4, §5, §6
# [3] = Solubility in different solvents according to Chinese Pharmacopeia (2005 edition); format: physicochemical; conditions: at the given solute:solvent ratio
# Procedure: The solubility of the (S)—[N-3-(3′-fluoro-4′-(4″-phenylpiperazinyl))phenyl-2-oxo-5-oxazolelidinyl]methylacetamide hydrates was tested with different solvents, and the test results are shown in Tables 15-19. The solubility was measured according to Chinese Pharmacopeia (2005 edition).
# [4] = S. ep MRSE (10 strains), clinically isolated
# [5] = E. feacalis (5 strains), clinically isolated
# [6] = E. feacium (5 strains), clinically isolated
# [7] = S. ep MSSE (10 strains), clinically isolated
smiles,measurement,setting,value
CC(=O)NC[C@H]1CN(c2ccc(N3CCN(c4ccccc4)CC3)c(F)c2)C(=O)O1 [Anhydrous compound],MIC50,[1],2 µg/mL
same,MIC90,[1],2 µg/mL
same,MICrange,[1],1 to 2 µg/mL
same,MIC50,S. epidermidis MRSE; [4],2 µg/mL
same,MIC90,S. epidermidis MRSE; [4],2 µg/mL
same,MICrange,S. epidermidis MRSE; [4],2 µg/mL
same,MIC,S. epidermidis MRSE; strain S. ep MRSE4 (Table 8 No. 9),2 µg/mL
same,MIC,S. epidermidis MRSE; strain S. ep MRSE20 (Table 8 No. 6),2 µg/mL
same,MIC,S. epidermidis MRSE; strain S. ep MRSE87 (Table 8 No. 13),2 µg/mL
same,MIC,S. epidermidis MRSE; strain S. ep MRSE90 (Table 8 No. 10),2 µg/mL
same,MIC,S. epidermidis MRSE; strain S. ep MRSE101 (Table 8 No. 7),2 µg/mL
same,MIC,S. epidermidis MRSE; strain S. ep MRSE105 (Table 8 No. 11),2 µg/mL
same,MIC,S. epidermidis MRSE; strain S. ep MRSE140 (Table 8 No. 14),2 µg/mL
same,MIC,S. epidermidis MRSE; strain S. ep MRSE142 (Table 8 No. 12),2 µg/mL
same,MIC,S. epidermidis MRSE; strain S. ep MRSE210 (Table 8 No. 15),2 µg/mL
same,MIC,S. epidermidis MRSE; strain S. ep MRSE211 (Table 8 No. 8),2 µg/mL
same,MIC50,[2],2 µg/mL
same,MIC90,[2],2 µg/mL
same,MICrange,[2],1 to 2 µg/mL
same,MIC50,E. feacalis; [5],4 µg/mL
same,MIC90,E. feacalis; [5],8 µg/mL
same,MICrange,E. feacalis; [5],2 to 8 µg/mL
same,MIC,E. feacalis; strain Efa 54 (Table 8 No. 20),4 µg/mL
same,MIC,E. feacalis; strain Efa 116 (Table 8 No. 16),4 µg/mL
same,MIC,E. feacalis; strain Efa 907 (Table 8 No. 19),2 µg/mL
same,MIC,E. feacalis; strain Efa 3006 (Table 8 No. 18),4 µg/mL
same,MIC,E. feacalis; strain Efa 33748 (Table 8 No. 17),8 µg/mL
same,MIC50,E. feacium; [6],4 µg/mL
same,MIC90,E. feacium; [6],8 µg/mL
same,MICrange,E. feacium; [6],2 to 8 µg/mL
same,MIC,E. feacium; strain Efm 98 (Table 8 No. 21),4 µg/mL
same,MIC,E. feacium; strain Efm 171 (Table 8 No. 25),4 µg/mL
same,MIC,E. feacium; strain Efm 197 (Table 8 No. 22),2 µg/mL
same,MIC,E. feacium; strain Efm N3 (Table 8 No. 23),8 µg/mL
same,MIC,E. feacium; strain Efm N4 (Table 8 No. 24),8 µg/mL
same,MIC50,S. epidermidis MSSE; [7],1 µg/mL
same,MIC90,S. epidermidis MSSE; [7],2 µg/mL
same,MICrange,S. epidermidis MSSE; [7],1 to 2 µg/mL
same,MIC,S. epidermidis MSSE; strain S. ep MSSE88 (Table 8 No. 5),2 µg/mL
same,MIC,S. epidermidis MSSE; strain S. ep MSSE118 (Table 8 No. 2),1 µg/mL
same,MIC,S. epidermidis MSSE; strain S. ep MSSE137 (Table 8 No. 4),2 µg/mL
same,MIC,S. epidermidis MSSE; strain S. ep MSSE140 (Table 8 No. 3),1 µg/mL
same,MIC,S. epidermidis MSSE; strain S. ep MSSE153 (Table 8 No. 1),2 µg/mL
"CC(=O)NC[C@H]1CN(c2ccc(N3CCN(c4ccccc4)CC3)c(F)c2)C(=O)O1 [Example 1, (S)—[N-3-(3′-fluoro-4′-(4″-phenylpiperazinyl))phenyl-2-oxo-5-oxazolidinyl]methyl acetamide]",Result,[3]; solvent 0.1N Hydrochloric acid,Dissolved
same,Result,[3]; solvent 0.1N Sodium hydroxide,Insoluble
same,Result,[3]; solvent Acetonitrile,Dissolved
same,Result,[3]; solvent Ethanol,Dissolved
same,Result,[3]; solvent Methanol,Dissolved
same,Result,"[3]; solvent Water, listed as Anhydride",Insoluble
